Laboratory results: paper PMC5589893, “Identification of Aspergillus fumigatus UDP-Galactopyranose Mutase Inhibitors” (Scientific Reports, 2017)
Where two headings read alike, the source gives them in different places. Blank lines part the entries; values can stand above or below the compound they belong to.

Key:
A. fumigatus [1] = test: Congo red susceptibility assay; assay type: cell-based, Aspergillus fumigatus; details: 100 µM compound with congo red (0.5 and 1 mg/mL), 48 h, 37 °C
A. fumigatus UGM [2] = target: T1, A. fumigatus UGM (Aspergillus fumigatus, UniProt Q4W1X2); test: biochemical; assay type: biochemical; details: for Inhibition of product formation, concentration dependence: UPLC at 20 and 200 µM compound, 2% DMSO; for Concentration effect: UPLC; for inhibition at 200 µM: read-out: Inhibition > 50 %; for enzyme activity at which the IC50 curve plateaued: 3 min
T1 construct: 8x His-tag (TEV-cleavable) (cleaved yes); made in house; host or cells: E. coli BL21 Turbo (DE3)
T1 sequence (Q4W1X2 whole entry): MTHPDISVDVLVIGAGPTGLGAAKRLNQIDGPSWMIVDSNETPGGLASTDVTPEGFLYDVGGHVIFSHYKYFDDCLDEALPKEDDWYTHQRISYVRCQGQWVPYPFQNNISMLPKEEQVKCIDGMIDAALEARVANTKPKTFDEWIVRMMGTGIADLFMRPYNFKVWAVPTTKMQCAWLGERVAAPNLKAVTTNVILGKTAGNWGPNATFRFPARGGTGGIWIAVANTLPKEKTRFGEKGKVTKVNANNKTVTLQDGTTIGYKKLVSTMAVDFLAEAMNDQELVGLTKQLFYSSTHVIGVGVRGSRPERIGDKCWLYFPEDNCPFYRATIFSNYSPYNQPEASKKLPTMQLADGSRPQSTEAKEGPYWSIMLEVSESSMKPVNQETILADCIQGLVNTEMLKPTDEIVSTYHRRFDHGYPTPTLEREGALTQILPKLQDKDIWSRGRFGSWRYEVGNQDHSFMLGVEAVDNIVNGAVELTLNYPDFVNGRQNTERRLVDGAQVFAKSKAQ
Method: (§1) The reaction was quenched with the addition of 70 µL acetonitrile. […] Samples were run at a flow rate of 0.5 mL/min for 5 min. IC50 was also determined by following NADPH oxidation at 340 nm. […] Data was analyzed using KaleidaGraph software. […] Global fitting was performed with Graphpad Prims 6 software (La Jolla, CA).

[3] = test system: UDP-glucuronosyltransferases; details: cited from earlier work
A. fumigatus UGM [4] = target: T1, A. fumigatus UGM; test: biochemical; assay type: binding
Method: Binding of inhibitors to UGM was measured with an Auto-ITC 200 ITC instrument. UGM was dialyzed in 50 mM potassium phosphate buffer, pH 7.0, for 2 h at 4 °C. In all cases, ligands were dissolved in dialysis buffer and protein and ligand were filtered with a […] membrane prior to loading. […] Inhibitor concentration in the syringe was 2 mM (2% DMSO), except for chrysin where the concentration was 600 µM (4% DMSO). […] Thermodynamic parameters were determined from ITC results using Microcal Origin version 7.0 (OriginLab) with the “ITC custom” add-on installed.

A. fumigatus [5] = test: Thermotolerance study, growth in PDA at 50 °C; assay type: cell-based, Aspergillus fumigatus; details: 1000 µM compound, 48 h at 50 °C, vs reference
UGM = target: T2, UGM (Aspergillus fumigatus, UniProt Q4W1X2); test: ThermoFAD melting temperature assay; assay type: binding; details: for Effect on Tm of UGM: vs UGM alone
T2 construct: 8x His-tag (TEV-cleavable) (cleaved yes); made in house; host or cells: E. coli BL21 Turbo (DE3)
T2 sequence (Q4W1X2 whole entry): as above
Method: The melting temperature[25] of UGM was determined by measuring the FAD fluorescence as a function of temperature (20–90 °C, 1 °C step) following the reported ThermoFAD procedure. The reaction mix consisted of 20 µL of 1 mg/mL UGM, 2% DMSO in 50 mM potassium phosphate buffer, pH 7.0. As a reference and positive control, the Tm was calculated in the presence DMSO and UDP (10 mM). Different concentrations of inhibitors were added in the range of 0–1 mM at a final DMSO concentration of 2% in the above-mentioned buffer. All experiments were done in triplicate.

A. fumigatus UGM [6] = target: T1, A. fumigatus UGM; test: biochemical; assay type: binding; details: read-out: Normalized anisotropy (%)
Method: High-throughput screening of the Spectrum Collection library using the FP assay with the ADP-TAMRA[22] probe was performed at the Virginia Tech Center for Drug Discovery Screening Laboratory. 384 well plates (Greiner 784900) were used and the reaction volume was 15 µL using 25 mM HEPES buffer (pH 7.0). For the screening, 30 nM of ADP-TAMRA with 6.7 µM UGM (based on the Bradford assay) and 20 µM of library compound were used, with a final DMSO concentration of 2%. Fluorescence polarization measurements were performed with excitation at 544 nm and emission at 584 nm, using a wavelength cutoff of 570 nm. Anisotropy measurements were performed after 30 and 120 minutes of incubation at 25 °C. Anisotropy values were normalized to the values obtained in the negative control sample: UGM, ADP-TAMRA, and DMSO (high anisotropy values). The positive control consisted of ADP-TAMRA and DMSO (low anisotropy values). The Z prime (Z′) value was determined using equation (1) where, σN,P and μN,P represent the standard deviation and the mean value the of the negative and positive controls respectively.1 Z′=1−3(σN+σP)/|μN−μP|

A. fumigatus [7] = test: Toxicity study, growth in PDA medium at 37 °C; assay type: cell-based, Aspergillus fumigatus
A. fumigatus UGM [8] = target: T1, A. fumigatus UGM; test: biochemical; assay type: biochemical; details: for Inhibition of NADPH oxidation: absence of UDP-Galf
Method: as §1

A. fumigatus UGM [9] = target: T1, A. fumigatus UGM; test: ADP-TAMRA fluorescence anisotropy binding and competition assay; details: for Kd: decrease in anisotropy of UGM (6.7 µM) - ADP-TAMRA (30 nM) complex, read-out: KD, competitive binding against ADP-TAMRA
Method: Our group previously developed a binding assay to identify inhibitors of flavoenzymes that use NADP(H) as substrate. Since UGM also used NADPH for reduction, we determined whether this compound bound to UGM. This was done by taking the ADP-TAMRA[22] chromophore to a final concentration of 30 nM in 25 mM HEPES buffer, pH 7.5, mixed with various concentrations of UGM (0–300 µM, based on Bradford). To determine if the chromophore was binding to the active site of UGM, the competitive binding of UDP (0–1 mM) and NADP^+ (0–10 mM) was calculated by measuring the decrease in anisotropy of the UGM (6.7 µM) - ADP-TAMRA (30 nM) complex. At each concentration of ligand, the solution was incubated for 10 min at room temperature. The sample was excited at 544 nm and the emission recorded at 584 nm using a wavelength cutoff of 570 nm.

[10] = Precipitation / solubility observed in inhibition assays; assay type: physicochemical
[11] = inhibition at 200 µM vs 20 µM compound
[12] = 20, 100 and 1000 µM compound, 2% DMSO, 1 mg/mL UGM
[13] = 20 µM compound, 2% DMSO, 30 nM ADP-TAMRA, normalized to negative control
[14] = product formation by UPLC with 200 µM compound, 20 µM UDP-Galf, 10 mM sodium dithionite

Structure (SMILES): O=C1C[C@@H](c2ccc(O)cc2)Oc2cc(O)cc(O)c21 [(2S)-naringenin]
Growth decrease with congo red (A. fumigatus [1]): ~ 30%
Inhibition of product formation, concentration dependence (A. fumigatus UGM [2]): concentration dependent potency
Concentration effect (A. fumigatus UGM [2]; [11]): +
inhibition at 200 µM (A. fumigatus UGM [2]): > 50%
Effect on UDP-glucuronosyltransferases [3]: inhibitory effect
Kd (A. fumigatus UGM [4]): 65 ± 13 µM
T•∆S (A. fumigatus UGM [4]; ITC, 25 °C): 0.9 ± 0.3 kcal/mol
∆G (A. fumigatus UGM [4]; ITC, 25 °C): -5.7 ± 1.0 kcal/mol
∆H (A. fumigatus UGM [4]; ITC, 25 °C): -4.8 ± 1.0 kcal/mol
Delay in colony development (A. fumigatus [5]): ~ 30%
Increase of Tm of UGM (UGM; [12]): ~ 2.7 °C
remaining activity at 20 µM (A. fumigatus UGM [6]; [13]): 23%
A. fumigatus toxicity (A. fumigatus [7]; 1000 µM): no A. fumigatus toxicity
A. fumigatus toxicity under optimal growth conditions (A. fumigatus [7]; 600 and 1000 µM, 24-48 h): not toxic
Type of Inhibition (A. fumigatus UGM [8]; NADPH oxidation at different concentrations of inhibitor and NADPH): competitive against NADPH
Inhibition of NADPH oxidation (A. fumigatus UGM [8]): inhibited NADPH oxidation

Kd (A. fumigatus UGM [9]): 124 ± 16 µM
Structure (SMILES): Nc1ncnc2c1ncn2[C@@H]1O[C@H](COP(=O)(O)OP(=O)(O)O)[C@@H](O)[C@H]1O [ADP]

Concentration effect (A. fumigatus UGM [2]; [11]): -
inhibition at 200 µM (A. fumigatus UGM [2]; [14]): < 50%
remaining activity at 20 µM (A. fumigatus UGM [6]; [13]): 14%
Structure (SMILES): O=C(O)C1=CC(=C(c2ccc(O)c(C(=O)O)c2)c2ccc(O)c(C(=O)O)c2)C=CC1=O [Aurin tricarboxylic acid]

Structure (SMILES): O=c1cc(-c2ccccc2)oc2cc(O)cc(O)c12 [Chrysin]
IC50 (A. fumigatus UGM [2]): 24 ± 4 µM
enzyme activity at which the IC50 curve plateaued (A. fumigatus UGM [2]; UPLC IC50 curve saturating below full inhibition (chrysin at ~30 µM)): ~ 35%
Inhibition of product formation, concentration dependence (A. fumigatus UGM [2]): concentration dependent potency
Concentration effect (A. fumigatus UGM [2]; [11]): +
inhibition at 200 µM (A. fumigatus UGM [2]): > 50%
Binding to UGM detected by ITC (A. fumigatus UGM [4]): nor was binding detected
Concentration above which compound precipitated ([10]; with 2% DMSO): above 100 µM
Effect on Tm of UGM (UGM; [12]): no effect on Tm
remaining activity at 20 µM (A. fumigatus UGM [6]; [13]): 48%
IC50 (A. fumigatus UGM [8]): > 1000 µM
Inhibition of NADPH oxidation (A. fumigatus UGM [8]): did not inhibit NADPH oxidation

Structure (SMILES): N#CC(c1ccc(Cl)cc1)c1c(Cl)cc(-n2ncc(=O)[nH]c2=O)cc1Cl (centres unmarked) [Diclazuril, reference compound]
Inhibition of product formation, concentration dependence (A. fumigatus UGM [2]): concentration dependent potency
Concentration effect (A. fumigatus UGM [2]; [11]): +
inhibition at 200 µM (A. fumigatus UGM [2]; [14]): > 50%
Effect on Tm of UGM (UGM; [12]): reduced the Tm
remaining activity at 20 µM (A. fumigatus UGM [6]; [13]): 37%

Concentration effect (A. fumigatus UGM [2]; [11]): -
inhibition at 200 µM (A. fumigatus UGM [2]; [14]): < 50%
remaining activity at 20 µM (A. fumigatus UGM [6]; [13]): 37%
Structure (SMILES): COc1cc(C)c(C(=O)Oc2cc(C)c(C(=O)O)c(O)c2C)c(OC)c1C [Diffractaic acid]

Concentration effect (A. fumigatus UGM [2]; ellagic acid assayed at 6 and 12 µM with 2% DMSO due to low solubility): -
Solubility [10]: low solubility
remaining activity at 20 µM (A. fumigatus UGM [6]; [13]): 50%
Structure (SMILES): O=c1oc2c(O)c(O)cc3c(=O)oc4c(O)c(O)cc1c4c23 [Ellagic acid]

Structure (SMILES): Cc1nc(-c2ccc(OCC(C)C)c(C#N)c2)sc1C(=O)O [Febuxostat, reference compound]
Inhibition of product formation, concentration dependence (A. fumigatus UGM [2]): concentration dependent potency
Concentration effect (A. fumigatus UGM [2]; [11]): +
inhibition at 200 µM (A. fumigatus UGM [2]): > 50%
Effect on Tm of UGM (UGM; [12]): reduced the Tm
remaining activity at 20 µM (A. fumigatus UGM [6]; [13]): 39%

enzyme activity at which the IC50 curve plateaued (A. fumigatus UGM [2]): around 70%
Concentration effect (A. fumigatus UGM [2]; [11]): +
inhibition at 200 µM (A. fumigatus UGM [2]; [14]): > 50%
anisotropy at which the KD curve plateaued (A. fumigatus UGM [9]; 30 nM ADP-TAMRA): around 50%
remaining activity at 20 µM (A. fumigatus UGM [6]; [13]): 38%
Structure (SMILES): O=c1c(O)c(-c2ccc(O)cc2)oc2cc(O)cc(O)c12 [Kaempferol]

Kd (A. fumigatus UGM [9]): 92 ± 13 µM
T•∆S (A. fumigatus UGM [4]; ITC, 25 °C): -8.4 ± 0.7 kcal/mol
∆G (A. fumigatus UGM [4]; ITC, 25 °C): -4.6 ± 0.3 kcal/mol
∆H (A. fumigatus UGM [4]; ITC, 25 °C): -13.0 ± 0.3 kcal/mol
Kd (A. fumigatus UGM [4]; ITC, 25 °C, read-out: KD): 413 ± 24 µM
Structure (SMILES): NC(=O)c1ccc[n+]([C@@H]2O[C@H](COP(=O)([O-])OP(=O)(O)OC[C@H]3O[C@@H](n4cnc5c(N)ncnc54)[C@H](OP(=O)(O)O)[C@@H]3O)[C@@H](O)[C@H]2O)c1 [NADP^+, reference compound]

Structure (SMILES): O=C(NCCO[N+](=O)[O-])c1cccnc1 [Nicorandil, reference compound]
Concentration effect (A. fumigatus UGM [2]; [11]): -
inhibition at 200 µM (A. fumigatus UGM [2]): < 50%
remaining activity at 20 µM (A. fumigatus UGM [6]): 27%

Structure (SMILES): CS(=O)(=O)Nc1ccc([N+](=O)[O-])cc1Oc1ccccc1 [Nimesulide, reference compound]
Concentration effect (A. fumigatus UGM [2]; [11]): -
inhibition at 200 µM (A. fumigatus UGM [2]): < 50%
remaining activity at 20 µM (A. fumigatus UGM [6]): 28%

Structure (SMILES): O=C(O)c1cc(/N=N/c2ccc(O)c(C(=O)O)c2)ccc1O [Olsalazine sodium, reference compound]
Concentration effect (A. fumigatus UGM [2]; [11]): -
inhibition at 200 µM (A. fumigatus UGM [2]): < 50%
remaining activity at 20 µM (A. fumigatus UGM [6]): 48%

Inhibition of UGM by derivatives (A. fumigatus UGM [2]): no inhibition
Structure (SMILES): O=C1C[C@H](c2ccc(O)cc2)Oc2cc(O)cc(O)c21 [R enantioniomer of naringenin, (2 R)-naringenin]

Structure (SMILES): Cc1ccc(C(=O)Nc2ccc(S(=O)(=O)O)c3cc(S(=O)(=O)O)cc(S(=O)(=O)O)c23)cc1NC(=O)c1cccc(NC(=O)Nc2cccc(C(=O)Nc3cc(C(=O)Nc4ccc(S(=O)(=O)O)c5cc(S(=O)(=O)O)cc(S(=O)(=O)O)c45)ccc3C)c2)c1 [Suramin hexasodium, reference compound]
Concentration effect (A. fumigatus UGM [2]; [11]): -
inhibition at 200 µM (A. fumigatus UGM [2]): < 50%
remaining activity at 20 µM (A. fumigatus UGM [6]): 41%

Structure (SMILES): O=c1ccn([C@@H]2O[C@H](COP(=O)(O)OP(=O)(O)O)[C@@H](O)[C@H]2O)c(=O)[nH]1 [UDP, reference compound]
Kd (A. fumigatus UGM [9]): 10 ± 1 µM
T•∆S (A. fumigatus UGM [4]; ITC, 25 °C): 10.5 ± 0.3 kcal/mol
∆G (A. fumigatus UGM [4]; ITC, 25 °C): -7.1 ± 0.1 kcal/mol
∆H (A. fumigatus UGM [4]; ITC, 25 °C): 3.3 ± 0.1 kcal/mol
Kd (A. fumigatus UGM [4]; ITC, 25 °C, read-out: KD): 5.4 ± 0.8 µM
Shift of Tm of UGM (UGM; 10 mM UDP): 3 °C

Inhibition of UGM by derivatives (A. fumigatus UGM [2]): no inhibitory effect
Structure (SMILES): O=C1C[C@@H](c2ccc(O)cc2)Oc2cc(O)ccc21 [liquiritigenin]
